# Laboratory results taken from patent US8007782B2, “Combination bacteriolytic therapy for the treatment of tumors” (priority 2003, dated 2011).
# Legend:
# [1] = tested on: Glucose Transporter-1 (Glut-1); test: Immunohistochemistry for Glut-1 (hypoxia marker) in HCT116 xenografts; type: in vivo, mice; conditions: HTI-286 1.7 mg/kg or docetaxel 50 mg/kg iv, 6 hr after treatment
# Protocol: Mice were euthanized six hours after treatment. Tumors were sectioned and H & E stained. Adjacent sections were stained for Glut-1 expression, a marker for hypoxia. Cells positive for Glut-1 appear brown. Arrows indicate examples of hemorrhage.
# Paraffin sections were deparaffinized, incubated with proteinase K (Invitrogen), heated at 95° C. for 20 min in citrate buffer (pH 6), and treated with peroxidase blocking reagent (Dako). Sections were incubated with a monoclonal antibody against Glucose Transporter-1 (Glut-1, Dako) followed by a biotin-conjugated secondary antibody (Pierce). A third layer consisting of HRP-conjugated anti-biotin (DAKO) was followed by diaminobenzidine (Sigma) staining. Sections were counterstained with eosin.
# Two independent tests of this hypothesis were performed. First, we directly assessed hypoxia within tumors by staining with an antibody to Glucose Transporter-1 (Glut-1). Glut-1 has been extensively studied and shown to be specifically expressed only in hypoxic regions (Airley et al., 2001).
# C. novyi-NT = test: Quantification of C. novyi-NT in tumors by real-time PCR; type: in vivo, C. novyi-NT in mice bearing HCT116 xenografts; conditions: versus spores without drug; HCT116 xenografts; SD printed +/−0.08 (HTI-286), +/−0.3 (docetaxel)
# Protocol: Mice bearing HCT116 xenografts were treated with C. novyi-NT spores with or without HTI-286 (1.7 mg/kg) as described above. Following euthanasia 24-48 hr later, tumors were harvested, weighed, minced, and Dounce-homogenized. Genomic DNA was isolated using the Qiagen Genomic DNA Buffer Set and Genomic-tip 100/G. 25 ng of DNA was used in a PCR using the conditions described in (Vogelstein and Kinzler, 1999) The following primers specific for the C. novyi-NT phospholipase C gene were used: 5′-[…] (SEQ ID NO:1) and 5′-[…] (SEQ ID NO:2). No detectable primer dimers formed and no nonspecific amplification of mouse or xenograft genomic DNA occurred with these primers and PCR conditions. Real-time PCR was performed using an iCycler, and threshold cycle numbers were calculated using the iCycler Optical system interface software (Bio-Rad Lab, Hercules, Calif.). Averages of the threshold cycle number (Ct) of triplicate measurements per tumor were obtained, and three different tumors were studied for each treatment group. The results were expressed as the difference between the Ct of the treated tumor and the Ct of untreated controls, normalized to tumor weight.
# Second, we directly tested the size of bacterial populations within tumors by measuring the number of bacteria at various times following intravenous injection of C. novyi-NT spores into mice bearing HCT116 xenografts. […]
structure (smiles),measurement,setting,value
"CN[C@H](C(=O)N[C@H](C(=O)N(C)[C@H](/C=C(\C)C(=O)O)C(C)C)C(C)(C)C)C(C)(C)c1ccccc1 [HTI-286, N,β,β-trimethyl-L-phenylalanyl-N^1-[(1S,2E)-3-carboxy-1-isopropylbut-2-enyl]-N^1,3-dimethyl-L-valinamide]",Glut-1 expression (hypoxia marker) in tumors,[1],large amounts of Glut-1
same,increase in number of C. novyi-NT bacteria in tumor when co-injected with drug,C. novyi-NT,6.8 fold
